Assay results: patent US20210330756A1, “Acetylation of Miro1” (University of South Carolina, priority 2020, published 2021)

System: growth cones of DRG neurons
Assay: Immunolabeling of growth cone cytoskeleton (Ac-α-tubulin, tyrosinated α-tubulin, F-actin)
Format: cell-based, rat
Experimental: We tested for this specificity in the adult DRG neurons from above by immunoblotting. […] (A) Number of mitochondria in growth cones after exposing DRG cultures to 10 μM TubA versus vehicle (control) for 1 h is shown as average fold-change in number of mitochondria per growth cone±SEM (n=13 axons across three culture preparations; *, P≤0.05 by one-way ANOVA with Bonferroni post hoc analysis). (B) Representative EMs of Remak bundles (arrowheads) in naive Sciatic nerve and nerves after 2 h vehicle (DMSO) or TubA injection are shown. Arrows indicate mitochondria in the unmyelinated axons. Note that a Schwann cell nucleus (asterisk) is seen in the Remak bundle for DMSO image but not the other two micrographs (scale bar=3 μm). (C) Quantification of number of mitochondria per unmyelinated axon from EM images as in B is shown as average±SEM (n≥5; *****, P≤0.0001 by one-way ANOVA with Bonferroni post hoc analysis). (D-F) Quantification for indicated parameters for mitochondrial transport in sciatic nerve in vivo using tetramethylrhodamine, ethyl ester, perchlorate to visualize mitochondria is shown.
We used a sequential immunostaining approach for simultaneous detection of tyrosinated α-tubulin (by indirect immunofluorescence), Ac-α-tubulin, and β-tubulin (by direct immunofluorescence). Phalloidin staining was also used to detect F-actin. Monoclonal mouse anti-Ac-α-tubulin IgG (6-11-B1; Sigma-Aldrich; T6793) was conjugated to Alexa Fluor 405 using the Zenon Labeling Kit per the manufacturer's instructions (Life Technologies; Z-25013). After fixation and permeabilization, coverslips were incubated with anti-Tyr-α-tubulin IgG (1:100; Sigma-Aldrich; T9028) in 1% blocking buffer overnight at 4° C. in a humidified chamber. […] Coverslips were washed twice with PBS then stained with Actin-Red 555 Ready Probe for 30 min (1:25 dilution of 200 /Uml stock; Thermo Fisher Scientific; R37112). […] Epifluorescence and confocal imaging was used for imaging of fixed samples to obtain protein localization and quantitation data. […]

SMILES: CN1CCc2c(c3ccccc3n2Cc2ccc(C(=O)NO)cc2)C1 [TubA, tubastatin]
- anti-Ac-α-tubulin immunoreactivity in growth cones (10 μM vs control cultures): significant increase in anti-Ac-α-tubulin immunoreactivity in growth cones
- tyrosinated α-tubulin in growth cones (10 μM vs control cultures): no change in tyrosinated α-tubulin
- growth cone signals for F-actin (TubA-treated cultures): consistently decreased
